The test system of experiment [1] is 24-hydroxylase (24Ohase) gene promoter in ROS 17/2.8 (bone) cells. Nature of the experiment: In vitro transcription assay (24-hydroxylase promoter luciferase reporter). Type of experiment: cell-based. The settings on record: FIG. 3; for EC50: ROS 17/2.8 cells, 24-hydroxylase promoter-luciferase, read-out: EC50, transcriptional activity in bone cells. The procedure:
In Vitro Transcription Assay
Transcription activity was measured in ROS 17/2.8 (bone) cells that were stably transfected with a 24-hydroxylase (24Ohase) gene promoter upstream of a luciferase reporter gene (Arbour et al., 1998). Cells were given a range of doses. Sixteen hours after dosing the cells were harvested and luciferase activities were measured using a luminometer.
RLU=relative luciferase units.

Experiment [2] in a line: Bone calcium mobilization (serum calcium) in vitamin D-deficient rats. The format is in vivo, Sprague-Dawley rats. The settings on record: FIG. 4. On the procedure:
(§1) Intestinal Calcium Transport and Bone Calcium Mobilization
(§2) Male, weanling Sprague-Dawley rats were placed on Diet 11 (0.47% Ca) diet +AEK oil for one week followed by Diet 11 (0.02% Ca) +AEK oil for 3 weeks. The rats were then switched to a diet containing 0.47% Ca for one week followed by two weeks on a diet containing 0.02% Ca. Dose administration began during the last week on 0.02% calcium diet. Four consecutive ip doses were given approximately 24 hours apart. Twenty-four hours after the last dose, blood was collected from the severed neck and the concentration of serum calcium determined as a measure of bone calcium mobilization. The first 10 cm of the intestine was also collected for intestinal calcium transport analysis using the everted gut sac method.

Experiment [3] can be described thus: Intestinal calcium transport (everted gut sac method) in vitamin D-deficient rats. The settings on record: FIG. 5; for intestinal calcium transport: everted gut sac. Type of experiment: in vivo, Sprague-Dawley rats. On the procedure:
as §1, §2

Experiment [4] has as its system HL-60 cells. The experiment is described as follows: HL-60 differentiation (nitro blue tetrazolium reduction). The format is cell-based, Human. The conditions noted are these: FIG. 2; for EC50: HL-60 cells, read-out: EC50, HL-60 cell differentiation. On the procedure: The study drugs were dissolved in ethanol and the concentrations determined using UV spectrophotometry. Serial dilutions were prepared so that a range of drug concentrations could be tested without changing the final concentration of ethanol (≦0.2%) present in the cell cultures.
Human promyelocytic leukemia (HL60) cells were grown in RPMI-1640 medium containing 10% fetal bovine serum. The cells were incubated at 37° C. in the presence of 5% CO2.
HL60 cells were plated at 1.2×10^5 cells/ml. Eighteen hours after plating, cells in duplicate were treated with drug. Four days later, the cells were harvested and a nitro blue tetrazolium reduction assay was performed (Collins et al., 1979; J. Exp. Med. 149:969-974). The percentage of differentiated cells was determined by counting a total of 200 cells and recording the number that contained intracellular black-blue formazan deposits. Verification of differentiation to monocytic cells was determined by measuring phagocytic activity (data not shown).

The target of experiment [5] is T1, full-length recombinant rat vitamin D receptor (Rattus norvegicus, UniProt P13053).
T1 construct: Full-length recombinant rat receptor was expressed in E. coli BL21 (DE3) Codon Plus RIL cells; histidine tag (C); made in house; host or cells: E. coli BL21 (DE3) Codon Plus RIL
T1 sequence (P13053 1-423): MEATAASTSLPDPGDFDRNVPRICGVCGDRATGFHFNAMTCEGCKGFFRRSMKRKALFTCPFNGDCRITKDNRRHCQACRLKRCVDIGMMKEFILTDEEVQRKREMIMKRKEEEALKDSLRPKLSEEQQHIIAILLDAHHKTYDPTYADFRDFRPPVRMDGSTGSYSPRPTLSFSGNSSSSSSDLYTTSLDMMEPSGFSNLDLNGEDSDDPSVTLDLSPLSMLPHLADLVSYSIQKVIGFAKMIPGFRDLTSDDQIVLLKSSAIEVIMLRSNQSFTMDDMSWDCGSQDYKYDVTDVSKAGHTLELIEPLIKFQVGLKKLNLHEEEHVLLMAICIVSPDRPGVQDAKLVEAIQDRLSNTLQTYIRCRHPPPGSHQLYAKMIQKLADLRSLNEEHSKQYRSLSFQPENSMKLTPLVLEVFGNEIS
The experiment is described as follows: Vitamin D receptor binding (competition with [3H]-1,25(OH)2D3). The settings on record: full-length recombinant rat VDR; FIG. 1. The source says:
Vitamin D Receptor Binding
Full-length recombinant rat receptor was expressed in E. coli BL21 (DE3) Codon Plus RIL cells and purified to homogeneity using two different column chromatography systems. The first system was a nickel affinity resin that utilizes the C-terminal histidine tag on this protein. The protein that was eluted from this resin was further purified using ion exchange chromatography (S-Sepharose Fast Flow). Aliquots of the purified protein were quick frozen in liquid nitrogen and stored at −80° C. until use. For use in binding assays, the protein was diluted in TEDK50 (50 mM Tris, 1.5 mM EDTA, pH7.4, 5 mM DTT, 150 mM KCl) with 0.1% Chaps detergent. The receptor protein and ligand concentration were optimized such that no more than 20% of the added radiolabeled ligand was bound to the receptor.
Radiolabeled and unlabeled ligands were added to 100 mcl of the diluted protein at a final ethanol concentration of ≦10%, mixed and incubated overnight on ice to reach binding equilibrium. The following day, 100 mcl of hydroxylapatite slurry (50%) was added to each tube and mixed at 10-minute intervals for 30 minutes. The hydroxylapaptite was collected by centrifugation and then washed three times with Tris-EDTA buffer (50 mM Tris, 1.5 mM EDTA, pH 7.4) containing 0.5% Titron X-100. […] Total binding was determined from the tubes containing only radiolabeled ligand.

Like-named read-outs stand apart in the source and are kept apart here.

Take `C=C1/C(=C\C=C2/CCC[C@]3(C)[C@@H]([C@H](C)CCCC(C)(C)O)CC[C@@H]23)C[C@@H](O)C[C@@H]1O` [1α,25-dihydroxyvitamin D3, reference compound]: the EC50 in experiment [1] was 0.3 nM; in experiment [4], 3 nM. For the same molecule, the “serum calcium levels (bone calcium mobilization)” value in experiment [2] (native hormone, dose not given, vitamin D-deficient rats, 0.02% Ca diet) was “increased serum calcium levels”. In addition, the intestinal calcium transport entry in experiment [3] (87 pmol/day) is “promotes a significant increase”.

With `C=C1[C@H](O)CC(=C/C=C2\CCC[C@]3(C)[C@@H]([C@@H](C)CC(F)F)CC[C@@H]23)C[C@H]1O` [FF-55, (20S)-23,23-difluoro-1α-hydroxy-2-methylene-19-nor-bishomopregnacalciferol], the “transcriptional activity in bone cells compared to 1α,25-dihydroxyvitamin D3 (in words)” value in experiment [1] is “about the same transcriptional activity”. Further, the values for the EC50 in experiment [1] and in experiment [4] (Homo sapiens) were 3 nM and 10 nM, respectively. Also, the bone calcium mobilization result was “did not result in mobilization of bone calcium” in experiment [2] (2340 pmol/day ip for 4 consecutive days, vitamin D-deficient rats, 0.02% Ca diet) and “without any effect” in experiment [2] (35100 pmol/day, vitamin D-deficient rats, 0.02% Ca diet). In addition, in experiment [2] (overall), the “bone calcium mobilization activity compared to 1,25(OH)2D3 (in words)” value is “very little bone calcium mobilization activity”. Besides, the intestinal calcium transport entry in experiment [3] (2340 pmol/day) is “does not promote intestinal calcium transport”; in experiment [3] (35100 pmol/day), “significant intestinal calcium transport activity”. Further, the “intestinal calcium transport activity compared to 1,25(OH)2D3 (in words)” value in experiment [3] (overall) is recorded as “very little activity”. Further, the “potency on HL-60 cell differentiation compared to 1,25(OH)2D3 (in words)” value in experiment [4] was “almost as potent as 1,25(OH)2D3”. Also, the Ki in experiment [5] worked out at 0.05 nM. Besides, in experiment [5], the “binding to vitamin D receptor compared to standard 1,25-(OH)2D3 (in words)” value was “bound almost equally to the receptor”.

As a reminder, the EC50 is the concentration needed to bring the measured effect to its halfway point. The term Ki denotes the dissociation constant of the complex between target and ligand, obtained from inhibition or displacement.

(Values after patent US7718637B2, “(20S)-23,23-difluoro-methylene-19-nor-bishomopregnacalciferol-vitamin D analogs” (Wisconsin Alumni Research Foundation, priority 2007, dated 2010).)
